# From patent US20250375473A1, “Pharmaceutical composition for treating cancer comprising an ionic compound having metal ion binding thereto” (METAFINES.CO.LTD., priority 2018, published 2025)
# Where two headings read alike, the source gives them in different places.
# How the values were obtained:
# [1] = system: lung cancer cell line (A-549); test: MTT assay, 48 h, A549
# Description: (§5) 7 cell lines were aliquoted to each well of a 96-well plate at 5×10^3 cells, and cultured for 24 hours. […] The drug-treated cells were cultured in an incubator (37° C., 5% CO2) for 48 hours, and 5 mg/ ? MTT reagent 10 ? was added to each well and cultured for additional 4 hours. Then, culture medium was removed and DMSO 100 ? was treated to dissolve the MTT stained precipitate, and absorbance was measured at 540 nm with a microplate reader.
# [2] = system: ovarian cancer cell line (A2780); test: MTT assay, 48 h, A2780
# Description: as §5
# [3] = system: stomach cancer cell line (SNU-638); test: MTT assay, 48 h, SNU-638
# Description: as §5
# [4] = system: pancreatic cancer cell line (PANC-1); test: MTT assay, 48 h, PANC-1
# Description: as §5
# [5] = system: breast cancer cell line (MDA-MB-231); test: MTT assay, 72 h, breast cancer cell line; assay type: cell-based; settings: for IC50: Homo sapiens, MDA-MB-231, 72 h; for IC50 of Breast cancer cell line: MDA-MB-231, 72 h, MTT
# Description: (§1) The calcium salts of Examples 1 to 3 were added to each well by concentration (20 mg/ ? , mg/ ? , 0.8 mg/ ? , 0.16 mg/ ? , 0.032 mg/ ? , 0.0064 mg/ ? , 0.00128 mg/ ? , 0.000256 mg/ ? ). […] The supernatant was removed using a centrifuge, DMSO 200 ? was added to each well to dissolve the MTT stained precipitate, and OD540 value was measured at 540 nm with an ELISA reader.
# [6] = system: colorectal cancer cell line (DLD-1); test: MTT assay, 72 h, colorectal cancer cell line; assay type: cell-based; settings: for IC50: Homo sapiens
# Description: as §1
# [7] = system: colorectal cancer cell line (HT-29); test: MTT assay, 48 h, HT-29
# Description: as §5
# [8] = system: colorectal cancer cell line (HCT-116); test: MTT assay, 48 h, HCT-116; settings: for IC50: Homo sapiens, HCT-116, 48 h
# Description: as §5
# [9] = system: liver cancer cell line (HepG2); test: MTT assay, 48 h, HepG2
# Description: as §5
# [10] = system: brain cancer cell line (U87MG); test: MTT assay, 72 h, brain cancer cell line; assay type: cell-based; settings: for IC50: Homo sapiens, U-87 MG
# Description: as §1
# [11] = system: PDH enzyme; test: Time-dependent PDH enzyme activity in cancer cells; assay type: cell-based; settings: DLD-1 and HT-29 cancer cells; FIG. 29
# [12] = system: HCT-116 cell; test: IC50 of each drug alone, 48 h, HCT-116; assay type: cell-based, human
# Description: (§2) Then, various concentration of Example or chemical anticancer drugs (Fluorouracil (5-FU), SN-38, Paclitaxel (PTX)) were treated thereto alone.
# [13] = system: DLD-1 cell; test: IC50 of each drug alone, 48 h, DLD-1; assay type: cell-based
# Description: as §2
# [14] = system: SW480; test: Hetero salts vs homo salts, cell viability and cytotoxicity, SW480; assay type: cell-based; settings: for viability at 5000 µM: SW480, read-out: cell viability, SW480 (5 mM)
# Description: (§3) Hetero salts prepared according to the examples (ASCA101, ASCA201) and homo salts were applied to colorectal cancer cell lines, and their effects on cell viability and cytotoxicity were evaluated.
# (§4) Herein, “Na-ASC” refers to sodium ascorbate, “Na-DCA” refers to sodium dichloroacetate, “Ca (ASC) 2” refers to calcium ascorbate, “Ca (DCA) 2” refers to calcium dichloroacetate, and “Ca (LA) 2” refers to calcium lactate.
# [15] = system: human colorectal cancer cell lines (HCT-116 and HT-29); test: Change in ascorbic acid level in cancer cells; assay type: cell-based; settings: 1 mM; 24 h; lysate; vs untreated control
# Description: After culture, the cultured cancer cells were pulverized with a homogenizer and centrifuged, and the concentration of ascorbic acid contained in the lysate was measured using an ascorbic acid assay kit (Biovision, San Francisco, CA).
# [16] = system: DLD-1; test: Hetero salts vs homo salts, cell viability and cytotoxicity, DLD-1; assay type: cell-based; settings: for viability at 10000 µM: DLD-1, read-out: cell viability, DLD-1 (10 mM)
# Description: as §3, §4
# [17] = system: poly (ADP-ribose) polymerase 1 (PARP-1); test: Western blot, PARP-1 expression in HCT-116; assay type: cell-based, human; settings: 24 h
# Description: The cultured cancer cells were pulverized with a homogenizer and centrifuged, and the expression levels of poly (ADP-ribose) polymerase 1 (PARP-1), β-catenin, VEGF and β-actin proteins contained in the lysate were measured using Western blot.
# [18] = system: HT-29 cell; test: IC50 of each drug alone, 48 h, HT-29; assay type: cell-based, human
# Description: as §2
# [19] = Homo sapiens, A549, 48 h, read-out: IC50 mM of A549 Lung cancer
# [20] = Homo sapiens, A549, 48 h, read-out: IC50 of A549 Lung cancer (mg/ml)
# [21] = Homo sapiens, A2780, 48 h, read-out: IC50 mM of A2780 Ovarian cancer
# [22] = Homo sapiens, A2780, 48 h, read-out: IC50 of A2780 Ovarian cancer (mg/ml)
# [23] = Homo sapiens, SNU-638, 48 h, read-out: IC50 mM of SNU-638 Stomach cancer
# [24] = Homo sapiens, SNU-638, 48 h, read-out: IC50 of SNU-638 Stomach cancer (mg/ml)
# [25] = Homo sapiens, PANC-1, 48 h, read-out: IC50 mM of PANC-1 Pancreatic cancer
# [26] = Homo sapiens, PANC-1, 48 h, read-out: IC50 of PANC-1 Pancreatic cancer (mg/ml)
# [27] = Homo sapiens, HT-29, 48 h, read-out: IC50 mM of HT-29 Colorectal cancer cell line
# [28] = Homo sapiens, HT-29, 48 h, read-out: IC50 of HT-29 Colorectal cancer cell line (mg/ml)
# [29] = read-out: IC50 mM of HCT-116 Colorectal cancer cell line
# [30] = read-out: IC50 of HCT-116 Colorectal cancer cell line (mg/ml)
# [31] = Homo sapiens, HepG2, 48 h, read-out: IC50 mM of HepG2 Liver cancer
# [32] = Homo sapiens, HepG2, 48 h, read-out: IC50 of HepG2 Liver cancer (mg/ml)
# [33] = read-out: IC50 value, HCT-116 cell
# [34] = Homo sapiens, HCT-116, read-out: IC50 value, HCT-116 cell
# [35] = Homo sapiens, SW480, read-out: cytotoxicity, SW-480
# [36] = Homo sapiens, DLD-1, read-out: cytotoxicity, DLD-1
compound,measurement,setting,value
"O=C(O)C(Cl)Cl [Dichloroacetic acid, dichloroacetic acid, reference compound]",IC50,[1]; [19],> 5 mM
same,IC50,[1]; [20],> 1.7 mg/mL
same,IC50,[2]; [21],> 5 mM
same,IC50,[2]; [22],> 1.7 mg/mL
same,IC50,[3]; [23],> 5 mM
same,IC50,[3]; [24],> 1.7 mg/mL
same,IC50,[4]; [25],> 5 mM
same,IC50,[4]; [26],> 1.7 mg/mL
same,IC50,[5]; read-out: IC50 of Breast cancer cell line (mg/ml),0.43 mg/mL
same,IC50,"[6]; DLD-1, 72 h, read-out: IC50 of Colorectal cancer cell line (mg/ml)",1.21 mg/mL
same,IC50,[7]; [27],> 5 mM
same,IC50,[7]; [28],> 1.7 mg/mL
same,IC50,[8]; [29],> 5 mM
same,IC50,[8]; [30],> 1.7 mg/mL
same,IC50,[9]; [31],> 5 mM
same,IC50,[9]; [32],> 1.7 mg/mL
same,IC50,[10]; read-out: IC50 of Brain cancer cell line (mg/ml),3.71 mg/mL
same,time-dependent PDH activity,[11],peaked at 6 hours post-treatment and subsequently declined
"CC(O)C(=O)[O-].O=C1O[C@H]([C@@H](O)CO)C([O-])=C1O.[Ca+2] [Example 2, calcium salts of ascorbic acid and lactate]",IC50 of A549 Lung cancer (mg/ml),"[1]; 48 h, MTT, value in brackets",(1.06) mg/ml
same,IC50,"[1]; read-out: IC50 mM of A549 Lung cancer, 48 h, MTT",3.1 mM
same,IC50,[12]; [33],430 µM
same,IC50,[13],340 µM
same,IC50,[14],2.6 mM
same,IC50 of A2780 Ovarian cancer (mg/ml),"[2]; 48 h, MTT, value in brackets",(0.05) mg/ml
same,IC50,"[2]; read-out: IC50 mM of A2780 Ovarian cancer, 48 h, MTT",0.14 mM
same,IC50 of SNU-638 Stomach cancer (mg/ml),"[3]; 48 h, MTT, value in brackets",(0.49) mg/ml
same,IC50,"[3]; read-out: IC50 mM of SNU-638 Stomach cancer, 48 h, MTT",1.44 mM
same,IC50 of PANC-1 Pancreatic cancer (mg/ml),"[4]; 48 h, MTT, value in brackets",(0.14) mg/ml
same,IC50,"[4]; read-out: IC50 mM of PANC-1 Pancreatic cancer, 48 h, MTT",0.4 mM
same,ascorbic acid concentration in cancer cells,[15],increased
same,IC50 of Breast cancer cell line,[5],0.05 mg/mL
same,IC50,[16],8.6 mM
same,IC50 of Colorectal cancer cell line,"[6]; DLD-1, 72 h, MTT",0.07 mg/mL
same,IC50 of HT-29 Colorectal cancer cell line (mg/ml),"[7]; 48 h, MTT, value in brackets",(0.23) mg/ml
same,IC50,"[7]; read-out: IC50 mM of HT-29 Colorectal cancer cell line, 48 h, MTT",0.66 mM
same,IC50 of HCT-116 Colorectal cancer cell line (mg/ml),"[8]; 48 h, MTT, value in brackets",(0.11) mg/ml
same,IC50 of HepG2 Liver cancer (mg/ml),"[9]; 48 h, MTT, value in brackets",(0.79) mg/ml
same,IC50,"[9]; read-out: IC50 mM of HepG2 Liver cancer, 48 h, MTT",2.3 mM
same,concentration at which expression level of full length PARP-1 was decreased the most,[17],0.34 mg/mL
same,IC50 of Brain cancer cell line,"[10]; U87MG, MTT",0.6 mg/mL
same,IC50,[18],1.79 mM
"CC(O)C(=O)[O-].O=C([O-])C(Cl)Cl.[Ca+2] (stereo not shown) [Example 3, calcium salts of dichloroacetic acid and lactate]",IC50 of Breast cancer cell line,[5],0.05 mg/mL
same,IC50 of Colorectal cancer cell line,"[6]; DLD-1, 72 h, MTT",0.86 mg/mL
same,concentration at which expression level of full length PARP-1 was decreased the most,[17],0.3 mg/mL
same,IC50 of Brain cancer cell line,"[10]; U87MG, MTT",0.8 mg/mL
"O=c1[nH]cc(F)c(=O)[nH]1 [Fluorouracil (5-FU), Fluorouracil]",IC50,[12]; [34],6 µM
"O=C1O[C@H]([C@@H](O)CO)C([O-])=C1O.[Na+] [Na-ASC, sodium ascorbate]",viability at 5000 µM,[14]; Homo sapiens,40.8%
same,IC50,[14]; [35],3 mM
same,viability at 10000 µM,[16]; Homo sapiens,65.3%
same,IC50,[16]; [36],9.6 mM
"O=C([O-])C(Cl)Cl.[Na+] [Na-DCA, sodium dichloroacetate]",viability at 5000 µM,[14]; Homo sapiens,99.8%
same,IC50,[14]; [35],> 5 mM
same,viability at 10000 µM,[16]; Homo sapiens,75.4%
same,IC50,[16]; [36],> 10 mM
"CC(=O)O[C@H]1C(=O)[C@@]2(C)[C@H]([C@H](OC(=O)c3ccccc3)[C@]3(O)C[C@H](OC(=O)[C@H](O)[C@@H](NC(=O)c4ccccc4)c4ccccc4)C(C)=C1C3(C)C)[C@]1(OC(C)=O)CO[C@@H]1C[C@@H]2O [Paclitaxel (PTX), Paclitaxel]",IC50,[12]; [34],0.0078 µM
CCc1c2c(nc3ccc(O)cc13)-c1cc3c(c(=O)n1C2)COC(=O)[C@]3(O)CC [SN-38],IC50,[12]; [33],0.25 µM
"O=C1O[C@H]([C@@H](O)CO)C(O)=C1O [ascorbic acid, reference compound]",IC50,[1]; [19],> 5 mM
same,IC50,[1]; [20],> 1.7 mg/mL
same,IC50,[2]; [21],0.15 mM
same,IC50,[2]; [22],0.05 mg/mL
same,IC50,[3]; [23],2.48 mM
same,IC50,[3]; [24],0.85 mg/mL
same,IC50,[4]; [25],0.37 mM
same,IC50,[4]; [26],0.13 mg/mL
same,ascorbic acid concentration in cancer cells,[15],lower level of increased ascorbic acid concentration
same,IC50,[5]; read-out: IC50 of Breast cancer cell line,0.06 mg/mL
same,IC50,"[6]; DLD-1, 72 h, MTT, read-out: IC50 of Colorectal cancer cell line",0.09 mg/mL
same,IC50,[7]; [27],0.93 mM
same,IC50,[7]; [28],0.32 mg/mL
same,IC50,[8]; [29],0.27 mM
same,IC50,[8]; [30],0.09 mg/mL
same,IC50,[9]; [31],4.2 mM
same,IC50,[9]; [32],1.44 mg/mL
same,IC50,"[10]; U87MG, MTT, read-out: IC50 of Brain cancer cell line",0.9 mg/mL
calcium ascorbate [Ca(ASC)2],"cell viability, SW480 (5 mM)",[14],33.19
same,ascorbic acid concentration in cancer cells,[15],lower level of increased ascorbic acid concentration
same,"cell viability, DLD-1 (10 mM)",[16],27.51
calcium dichloroacetate [Ca(DCA)2],"cell viability, SW480 (5 mM)",[14],105.98
same,"cell viability, DLD-1 (10 mM)",[16],62.53
